Molecules are shown by their SMILES. Peptide text beside a SMILES is read from it. * marks the point of attachment. Hydrocinnamoyl = O=C(CCc1ccccc1)*

The source of these data is publication PMC12040169 (PLOS Biology, 2025).

One series can be described thus: in vitro. The settings on record: human, hela cells, % viability.
As to `Cc1onc(-c2ccccc2)c1CNC(=O)c1ccc(OC(F)(F)F)cc1` [CBK144080], the viability – broadly, a read-out of living cells in per cent, often relative to untreated cells – at 28.5 h, 10 µM stood at 97.9%. On the same count and under the same terms, the result for `CCCC1(C)CCCN(Cc2nnnn2-c2ccc(S(C)(=O)=O)cc2)C1` (centres unmarked) [CBK304133] reads 79.8%; that for `Cc1nn(C)cc1S(=O)(=O)N1CCc2cc(Cl)ccc21` [CBK282802], 107%; that for `Nc1nc(O)c2c(n1)NC1(CCC1)[C@@H]1C[C@@H](O)[C@@H](O)[C@H]21` [CBK303248], 118%. On to `O=c1nc(O)c(I)cn1C1OC(CO)C(O)C1O` (centres unmarked) [CBK015625], for which the viability at 28.5 h, 10 µM was 82.3%. The same measure, in the same setting: with `CC(C)c1csc(C2CCN(C(=O)CCc3ccsc3)CC2)n1` [CBK305327] the figure was 104%. On the same count and under the same terms, with `O=S(=O)(Nc1nc(-c2sccc2Cl)cs1)c1cc(Cl)ccc1Cl` [CBK014147] the figure was 94.2%; with `CC1CCCC(C)N1c1nn(C)c(=O)[nH]1` (centres unmarked) [CBK019114], 100%.

As to `C[S+]([O-])CCNC(=O)c1cnn(-c2ccc(F)cc2)c1` (centres unmarked) [CBK283245], the viability at 28.5 h, 10 µM came to 89.1%.

Turning to `Cc1ccc(-c2cc(-c3ccccc3O)nc(N/N=C/c3cccnc3)n2)cc1` [CBK262308], the viability at 28.5 h, 10 µM is 85.2%.

As for `CS(=O)(=O)Nc1ccc(C(=O)Nc2ccc(S(=O)(=O)N3CCOCC3)cc2)cc1` [CBK268379], the viability at 28.5 h, 10 µM came out at 117%. The same measure, in the same setting: with `COCc1cn([C@H]2CO[C@H]3[C@@H]2OC[C@@H]3NC(=O)Nc2ccc(OC)cc2)nn1` [CBK289495] the figure was 107%.

`O=[N+]([O-])c1ccccc1NC1OCC(O)C(O)C1O` (centres unmarked) [CBK262032]: the viability at 28.5 h, 10 µM is 90.3%. Regarding `COC(=O)/N=C1/Nc2ccccc2CN1CC(N)=O` [CBK007160], the viability at 28.5 h, 10 µM amounted to 91.9%. For the compound `CS(=O)(=O)CS(=O)(=O)C1=C(N2CCOCC2)C2CCN1CC2` [CBK019499], the viability at 28.5 h, 10 µM came to 87.5%. On the same count and under the same terms, with `CCCCCCn1nc(C(=O)NCC(=O)O)c2ccccc2c1=O` [CBK297491] the figure was 97.3%; with `Cc1nc(-c2ccccc2)sc1CNC(=O)C(C)c1ccc([N+](=O)[O-])cc1` (centres unmarked) [CBK092364], 98%. `CC(C)(CN)CN(Cc1ccccc1C(F)(F)F)C(=O)Nc1ccc(C(C)(C)C)cc1` [CBK026828C]: the viability at 28.5 h, 10 µM amounted to 92.4%. Same read-out and setting: with `O=C(NC(c1ccc(Cl)cc1)c1ccsc1)C1CCN(S(=O)(=O)CC(F)(F)F)CC1` (centres unmarked) [CBK060088] the figure was 89.1%; with `COc1ccc(-c2nc(-c3cccs3)cnc2N)cc1OC` [CBK063981], 107%. The same measure, in the same setting: the result for `Cc1ccc(CNC(=O)OCc2cccnc2C)o1` [CBK200131] reads 99%. In the case of `Nc1nc(SCCc2ccccc2)nc2sc3c(c12)CCCC3` [CBK263445], the viability at 28.5 h, 10 µM was found to be 94.9%. Still for that read-out and setting: the result for `CC(C)(C)c1cc(CN2CCCCC2)c(C(=O)O)o1` [CBK266556C] reads 97.8%; that for `Cc1nc(S(=O)(=O)N2CCC3(CCCCC3)C2)cn1C` [CBK306306], 100%; that for `O=C(O)c1nc2n(n1)C(C(F)(F)F)CC(c1cccs1)N2` (centres unmarked) [CBK026415], 97%. For `Fc1cccc(F)c1CN1CCN(CCc2ccccc2)CC1` [CBK126422], the viability at 28.5 h, 10 µM was 89.9%. Consider `Cc1cc(NC(=O)c2ccco2)c2ccccc2n1` [CBK116258], for which the viability at 28.5 h, 10 µM is 106%. In the case of `O=C(NCc1ccncc1)c1nn(-c2ncccn2)c2ccccc12` [CBK048498], the viability at 28.5 h, 10 µM was 93.1%.

Regarding `Cc1[nH]c2ccc(C(=O)O)cc2c1CC(=O)O` [CBK267080], the viability at 28.5 h, 10 µM was 96.3%.

As for `Cc1ccc(S(=O)(=O)N(CC(=O)NC2CCCC2)Cc2ccccc2)cc1` [CBK263166], the viability at 28.5 h, 10 µM turned out to be 89.9%.

In the case of `COc1ccc([C@@]23CC[C@@H](NC(=O)Nc4ccc(OC(F)(F)F)cc4)C[C@@H]2N(C)CC3)cc1OC` [CBK036455T], the viability at 28.5 h, 10 µM was 82.2%.

Consider `O=C(NCc1ccsc1)NCC1CCN(c2ccncc2)CC1` [CBK306394], for which the viability at 28.5 h, 10 µM stood at 91.3%.

For `O=S(=O)(Nc1nnn[nH]1)c1ccc(F)cc1` [CBK050473], the viability at 28.5 h, 10 µM is 104%. For the compound `CCc1cc(Br)ccc1S(=O)(=O)NCCC#N` [CBK044760], the viability at 28.5 h, 10 µM turned out to be 91.9%. `O=C(CCn1ccc2ccncc21)NCCc1c[nH]c2ccccc12` [CBK284760]: the viability at 28.5 h, 10 µM stood at 99%.

Regarding `O=C(/C=C\c1ccc(Cl)cc1Cl)N1CCN(Cc2ccc3c(c2)OCO3)CC1` [CBK074371], the viability at 28.5 h, 10 µM was found to be 97.3%. The same measure, in the same setting: the result for `COCC(C)NC(=O)C1CCCN(S(=O)(=O)c2ccc(OC)c(C)c2)C1` (centres unmarked) [CBK270242] reads 86%; that for `CC(C)c1cc(C(C)C)c(S(=O)(=O)n2cnc3c2c(=O)[nH]c(=O)n3C)c(C(C)C)c1` [CBK018772], 107%; that for `OC(COCc1ccc(Cl)cc1)CN1CCN(C(c2ccccc2)c2ccccc2)CC1` (centres unmarked) [CBK074857C], 86.3%. Turning to `O=C(O)CCN1C(=O)c2ccc(NC(=O)c3ccccc3Cl)cc2C1=O` [CBK268413], the viability at 28.5 h, 10 µM was determined as 83.7%. Regarding `Cc1nc2cc(C(=O)N(C)CCN3CCCCC3)ccc2n1C` [CBK281854], the viability at 28.5 h, 10 µM was 78.3%. Take `CCNC(=O)N1CCCC(Cc2ccc(F)cc2F)(C(=O)OCC)C1` (centres unmarked) [CBK306734]: the viability at 28.5 h, 10 µM amounted to 81.9%.

Turning to `CCn1cc(C(=O)O)c(=O)c2cc(F)c(N3CCN(C(=S)Nc4ccc5c(c4)OCO5)CC3)cc21` [CBK268027], the viability at 28.5 h, 10 µM turned out to be 83.1%.

In the case of `CC(Oc1cccc(Br)c1)c1nc(-c2ccc(-n3cccc3)cc2)no1` (centres unmarked) [CBK293986], the viability at 28.5 h, 10 µM is 102%. As for `CC(C)c1nc(-c2cc3ccccc3nc2O)no1` [CBK287964], the viability at 28.5 h, 10 µM is 112%. Still for that read-out and setting: with `CC(C)(C)c1cc(CCC(=O)N2CCN(C(=O)CCc3cc(C(C)(C)C)c(O)c(C(C)(C)C)c3)CC2)cc(C(C)(C)C)c1O` [CBK261963] the figure was 91.1%; with `COc1ccc2c(c1)C1(CC(=O)N(CC(=O)N(C)OC)C1=O)C(=O)N2CCCCOc1ccccc1` (centres unmarked) [CBK076032], 92.6%; with `Cc1c(F)cccc1CNCCNC(=O)OC(C)(C)C` [CBK056700], 95.7%.

For the compound `Cc1nc2c(C(=O)NCC3OCCO3)cnn2c(C)c1Cc1ccc(Br)cc1` [CBK167467], the viability at 28.5 h, 10 µM stood at 99.8%. The same measure, in the same setting: with `C=CCN1CCC2(CC1)CN(C(C)=O)Cc1cc(C)ccc1O2` [CBK282693] the figure was 97.5%; with `COc1ccc(-n2nnc(C(=O)N3CCCCC3C(N)=O)c2C)cc1` (centres unmarked) [CBK305551], 98.1%. Still for that read-out and setting: with `O=C(O)CNC(=O)CNC(=O)CCc1ccccc1` [CBK286874] (Hydrocinnamoyl-Gly-Gly-OH) the figure was 87.1%; with `O=C(CSc1nc2[nH]ncc2c(=O)n1-c1ccccc1)Nc1nsc(-c2ccccc2)n1` [CBK266486], 101%.

In the case of `CN1C[C@@H](NC(=O)Nc2ccccc2)C[C@H]1c1nc(Cc2ccccc2)no1` [CBK288860], the viability at 28.5 h, 10 µM is 85.2%.

With `CCOc1ccccc1-c1noc(-c2nn(-c3ccc(C)cc3)ccc2=O)n1` [CBK288597], the viability at 28.5 h, 10 µM is 95.7%.

The same series, now with this note: human, hela cells, % viability, bulk resorufin, single well.
Take `N#CC1(c2ccccc2)CCN(C(=O)CCC(F)(F)F)CC1` [CBK091399]: the viability at 28.5 h, 10 µM was determined as 97.7%.
